Laboratory results reported in patent publication US20230165980A1, “METHODS FOR RADIOLABELING PSMA BINDING LIGANDS AND THEIR KITS” (Novartis AG, priority 2020, published 2023).

Experiment: Radiochemical purity and radiochemical stability of ^68GaPSMA-11 by HPLC
Format: physicochemical
Procedure: Radiochemical Purity and Identification of ^68GaPSMA-11 by HPLC
Chromatographic Conditions
Radical Scavenger to be used for the improvement of the radiochemical stability of ^68Ga-PSMA-11, tests were performed according to a varied approach in order to consider all the parameters that may affect the radiochemical purity of the product (activity, pH, volume, amount of Gentisic Acid).
Stability tests were performed on the freeze dried product containing the final formulation. […] Kits manufactured with the final formulation, indeed, were stored at different stability conditions (2-8° C.; 25° C. and 40° C.) and were tested at different time points for API-assay, Radiochemical Purity and Radiochemical Stability of the radiolabelled product. Radiochemical Purity and Stability were assessed only eluting IRE Generator which represented the most stressful condition in terms of Radioactive Concentration (Volumic Activity).

[1] = t4 h, Gentisic Acid 0 μg, IRE 17.19 mCi, 1 mL, pH 5.24
[2] = t4 h, Gentisic Acid 200 μg, IRE 17.85 mCi, 1 mL, pH 5.22
[3] = t4 h, Gentisic Acid 200 μg, IRE 18.07 mCi, 1 mL, pH 5.25
[4] = t4 h, Gentisic Acid 200 μg, ITG 35.92 mCi, 4 mL, pH 4.83
[5] = t4 h, Gentisic Acid 400 μg, IRE 17.44 mCi, 1 mL, pH 5.13
[6] = t4 h, Gentisic Acid 400 μg, IRE 17.79 mCi, 1 mL, pH 5.11
[7] = t4 h, Gentisic Acid 400 μg, ITG 16.9 mCi, 4 mL, pH 4.85
[8] = t4 h, Gentisic Acid 400 μg, ITG 31.97 mCi, 4 mL, pH 4.81
[9] = t4 h, Gentisic Acid 1000 μg, E&Z 15.65 mCi, 5 mL, pH 3.75
[10] = t4 h, Gentisic Acid 1000 μg, IRE 17.1 mCi, 1 mL, pH 5.08
[11] = t4 h, Gentisic Acid 1000 μg, ITG 30.9 mCi, 4 mL, pH 4.87
[12] = t4 h, final formulation kit at Release, E&Z 15.65 mCi, 5 mL, pH 3.75
[13] = t4 h, final formulation kit at Release, E&Z 16.80 mCi, 5 mL, pH 3.75
[14] = t4 h, final formulation kit at Release, IRE 32.27 mCi, 1 mL, pH 4.95
[15] = t4 h, final formulation kit at Release, IRE 32.95 mCi, 1 mL, pH 5.07
[16] = t4 h, final formulation kit at Release, ITG 29.74 mCi, 4 mL, pH 4.67
[17] = t4 h, final formulation kit at Release, ITG 30.90 mCi, 4 mL, pH 4.67
[18] = t4 h, kit stored 3 months at 2-8° C., IRE 25.76 mCi, 1 mL, pH 5.29
[19] = t4 h, kit stored 3 months at 25° C., IRE 24.56 mCi, 1 mL, pH 5.16
[20] = t4 h, kit stored 3 months at 40° C., IRE 24.86 mCi, 1 mL, pH 5.23
[21] = t4 h, kit stored 6 months at 2-8° C., IRE 19.90 mCi, 1 mL, pH 5.13
[22] = t4 h, kit stored 6 months at 25° C., IRE 18.88 mCi, 1 mL, pH 5.09
[23] = t4 h, kit stored 6 months at 40° C., IRE 19.34 mCi, 1 mL, pH 5.15

For ^68Ga-PSMA-11 [[^68Ga] Gallium PSMA-11], the “[^68Ga] Gallium main degradant, HPLC” value (t0 h, kit stored 6 months at 40° C., IRE 19.34 mCi, 1 mL, pH 5.15) was 0.42%, the “[^68Ga] Gallium PSMA-11 (sum of stereosiomers), HPLC” value [1] was 90.89% and the “[^68Ga] Gallium free, HPLC” value [1] was 0.14%. For the same substance, the “[^68Ga] Gallium main degradant, HPLC” value [1] was 7.32%, the “[^68Ga] Gallium PSMA-11 (sum of stereosiomers), HPLC” value [2] was 97.87% and the “[^68Ga] Gallium free, HPLC” value [2] was 0.00%. For the same substance, the “[^68Ga] Gallium main degradant, HPLC” value [2] was 1.80%, the “[^68Ga] Gallium PSMA-11 (sum of stereosiomers), HPLC” value [3] was 97.80% and the “[^68Ga] Gallium free, HPLC” value [3] was 0.00%. The “[^68Ga] Gallium main degradant, HPLC” value [3] was 1.74%, the “[^68Ga] Gallium PSMA-11 (sum of stereosiomers), HPLC” value [4] was 99.72% and the “[^68Ga] Gallium free, HPLC” value [4] was 0.00%. For the same substance, the “[^68Ga] Gallium main degradant, HPLC” value [4] was 0.00%, the “[^68Ga] Gallium PSMA-11 (sum of stereosiomers), HPLC” value [5] was 99.20% and the “[^68Ga] Gallium free, HPLC” value [5] was 0.00%. For the same substance, the “[^68Ga] Gallium main degradant, HPLC” value [5] was 0.68%, the “[^68Ga] Gallium PSMA-11 (sum of stereosiomers), HPLC” value [6] was 98.46% and the “[^68Ga] Gallium free, HPLC” value [6] was 0.00%. The “[^68Ga] Gallium main degradant, HPLC” value [6] was 1.54%, the “[^68Ga] Gallium PSMA-11 (sum of stereosiomers), HPLC” value [7] was 98.24% and the “[^68Ga] Gallium free, HPLC” value [7] was 0.00%. The “[^68Ga] Gallium main degradant, HPLC” value [7] was 0.00%, the “[^68Ga] Gallium PSMA-11 (sum of stereosiomers), HPLC” value [8] was 99.57% and the “[^68Ga] Gallium free, HPLC” value [8] was 0.00%. For the same substance, the “[^68Ga] Gallium main degradant, HPLC” value [8] was 0.00%, the “[^68Ga] Gallium PSMA-11 (sum of stereosiomers), HPLC” value [9] was 100.00% and the “[^68Ga] Gallium free, HPLC” value [9] was 0.00%. The “[^68Ga] Gallium main degradant, HPLC” value [9] was 0.00%, the “[^68Ga] Gallium PSMA-11 (sum of stereosiomers), HPLC” value [10] was 99.59% and the “[^68Ga] Gallium free, HPLC” value [10] was 0.00%. For the same substance, the “[^68Ga] Gallium main degradant, HPLC” value [10] was 0.41%, the “[^68Ga] Gallium PSMA-11 (sum of stereosiomers), HPLC” value [11] was 99.69% and the “[^68Ga] Gallium free, HPLC” value [11] was 0.00%. The “[^68Ga] Gallium main degradant, HPLC” value [11] was 0.06%, the “[^68Ga] Gallium PSMA-11 (sum of stereosiomers), HPLC” value [12] was 100.00% and the “[^68Ga] Gallium free, HPLC” value [12] was 0.00%. The “[^68Ga] Gallium main degradant, HPLC” value [12] was 0.00%, the “[^68Ga] Gallium PSMA-11 (sum of stereosiomers), HPLC” value [13] was 100.00% and the “[^68Ga] Gallium free, HPLC” value [13] was 0.00%. The “[^68Ga] Gallium main degradant, HPLC” value [13] was 0.00%, the “[^68Ga] Gallium PSMA-11 (sum of stereosiomers), HPLC” value [14] was 98.75% and the “[^68Ga] Gallium free, HPLC” value [14] was 0.00%. The “[^68Ga] Gallium main degradant, HPLC” value [14] was 0.54%, the “[^68Ga] Gallium PSMA-11 (sum of stereosiomers), HPLC” value [15] was 99.05% and the “[^68Ga] Gallium free, HPLC” value [15] was 0.03%. The “[^68Ga] Gallium main degradant, HPLC” value [15] was 0.42%, the “[^68Ga] Gallium PSMA-11 (sum of stereosiomers), HPLC” value [16] was 99.82% and the “[^68Ga] Gallium free, HPLC” value [16] was 0.00%. For the same substance, the “[^68Ga] Gallium main degradant, HPLC” value [16] was 0.00%, the “[^68Ga] Gallium PSMA-11 (sum of stereosiomers), HPLC” value [17] was 99.69% and the “[^68Ga] Gallium free, HPLC” value [17] was 0.00%. The “[^68Ga] Gallium main degradant, HPLC” value [17] was 0.06%, the “[^68Ga] Gallium PSMA-11 (sum of stereosiomers), HPLC” value [18] was 99.37% and the “[^68Ga] Gallium free, HPLC” value [18] was 0.00%. For the same substance, the “[^68Ga] Gallium main degradant, HPLC” value [18] was 0.49%, the “[^68Ga] Gallium PSMA-11 (sum of stereosiomers), HPLC” value [19] was 99.03% and the “[^68Ga] Gallium free, HPLC” value [19] was 0.00%. The “[^68Ga] Gallium main degradant, HPLC” value [19] was 0.38%, the “[^68Ga] Gallium PSMA-11 (sum of stereosiomers), HPLC” value [20] was 98.20% and the “[^68Ga] Gallium free, HPLC” value [20] was 0.00%. For the same substance, the “[^68Ga] Gallium main degradant, HPLC” value [20] was 0.37%, the “[^68Ga] Gallium PSMA-11 (sum of stereosiomers), HPLC” value [21] was 99.44% and the “[^68Ga] Gallium free, HPLC” value [21] was 0.00%. The “[^68Ga] Gallium main degradant, HPLC” value [21] was 0.44%, the “[^68Ga] Gallium PSMA-11 (sum of stereosiomers), HPLC” value [22] was 99.21% and the “[^68Ga] Gallium free, HPLC” value [22] was 0.00%. For the same substance, the “[^68Ga] Gallium main degradant, HPLC” value [22] was 0.33%, the “[^68Ga] Gallium PSMA-11 (sum of stereosiomers), HPLC” value [23] was 99.23% and the “[^68Ga] Gallium free, HPLC” value [23] was 0.00%. For the same substance, the “[^68Ga] Gallium main degradant, HPLC” value [23] was 0.46%.
